The source of these data is ChEMBL document CHEMBL1201862, “PubChem BioAssay data set” (2004).

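Tested at 5 concentrations; 48 h exposure; 96-well plates; endpoints linearly interpolated, else capped at highest concentration. Here, GI50 denotes the concentration required for 50% inhibition of growth.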 Activity calls are given as the source filed them. Rule as the data show it: active = GI50 up to about 1.1 µM and inactive = higher. Non-standard residues stand in square brackets, D forms with d. Residues, ends and D or L forms follow the SMILES beside them. *: point of attachment. Ac5c = NC1(C(=O)O)CCCC1; Cbz = O=C(OCc1ccccc1)*; Boc = CC(C)(C)OC(=O)*; tBu = CC(C)(C)* Some results are limits rather than exact numbers.

Among the test systems are OVCAR-3; Malme-3M; HCC 2998; MDA-N; UACC-62; NCI-H226; MDA-MB-435; OVCAR-8; SNB-75; NCI-H23; SR; UO-31; RPMI-8226; SF-295; NCI-H522; LOX IMVI; OVCAR-4; TK-10; Hs-578T; 786-0.
Holding throughout (test): NCI-60 cell line screen, 48 h

Regarding `Cc1ccc(CN2CCN(Cc3ccc(C)o3)C(C)C2)o1` (stereo not given), the GI50 in the test with OVCAR-3, in the test with Malme-3M, in the test with HCC 2998, in the test on MDA-N, with UACC-62 and in the test with NCI-H226 was > 100 µM (inactive) each time. Also, the GI50 in the test on MDA-MB-435, in the test with OVCAR-8, in the test on SNB-75, in the test on NCI-H23, in the test with SR and in the test on UO-31 was > 100 µM (inactive) in each case. For the same compound, the GI50 in the test with RPMI-8226, with SF-295, in the test on NCI-H522, in the test on LOX IMVI, with OVCAR-4 and in the test with TK-10 was > 100 µM (inactive) throughout. The GI50 in the test with Hs-578T and in the test on 786-0 was > 100 µM (inactive) each time.
Regarding `O=c1[nH]c(=S)[nH]n1C(=S)n1[nH]c(=S)[nH]c1=O`, the GI50 in the test on OVCAR-3 is 41.7 µM (inactive); in the test on Malme-3M it was 36.7 µM (inactive); in the test with HCC 2998, > 100 µM (inactive); in the test on MDA-N it was > 100 µM (inactive); in the test on UACC-62, > 100 µM (inactive); with NCI-H226, > 100 µM (inactive). The GI50 with MDA-MB-435 was > 100 µM (inactive); with OVCAR-8, > 100 µM (inactive); with SNB-75, > 100 µM (inactive); in the test on NCI-H23 it was > 100 µM (inactive); in the test with SR it was 41.4 µM (inactive); in the test with UO-31, > 100 µM (inactive). The GI50 is 89.1 µM (inactive) in the test with RPMI-8226; > 100 µM (inactive) in the test with SF-295; > 100 µM (inactive) in the test with NCI-H522; 60.4 µM (inactive) in the test with LOX IMVI; > 100 µM (inactive) in the test with OVCAR-4; > 100 µM (inactive) in the test with TK-10. The GI50 in the test on Hs-578T and in the test on 786-0 was > 100 µM (inactive) in each case.
Take `COCC1OC(OC2C3=C(C(C)C)CCC3(C)/C=C3\C(CCC3(O)COC)C(C)C2O)C(O)C2OC3OC12OC3(C)C1CO1` (stereo not given): the GI50 is 26.4 µM (inactive) with OVCAR-3; 34.7 µM (inactive) in the test with Malme-3M; 42.2 µM (inactive) in the test with HCC 2998; 54.1 µM (inactive) with MDA-N; 21.9 µM (inactive) with UACC-62; 16.3 µM (inactive) in the test with NCI-H226. The GI50 in the test on MDA-MB-435 is 31 µM (inactive); in the test with OVCAR-8, 48 µM (inactive); with SNB-75, 21.7 µM (inactive); with NCI-H23, 90.2 µM (inactive); in the test with SR, 41.8 µM (inactive); in the test on UO-31, 16.4 µM (inactive). Also, the GI50 with RPMI-8226 was 27.2 µM (inactive); in the test on SF-295, 31.7 µM (inactive); in the test with NCI-H522, 22.9 µM (inactive); in the test on LOX IMVI it was 22.5 µM (inactive); in the test with OVCAR-4, 25.5 µM (inactive); in the test with TK-10, 29.9 µM (inactive). Also, the figures for the GI50 with Hs-578T and in the test with 786-0 were 19.6 µM (inactive) and 60.8 µM (inactive), respectively.
With `CC(C)CC(C(N)=O)C(=O)NC(Cc1ccccc1)NC(=O)CNC(=O)C(C)NC(=O)C(N)Cc1ccc(O)cc1` (stereo not given), the GI50 with OVCAR-3, with Malme-3M, in the test on HCC 2998, in the test on MDA-N, in the test with UACC-62 and with NCI-H226 was > 100 µM (inactive) throughout. Besides, the GI50 with MDA-MB-435, with OVCAR-8, in the test with SNB-75, in the test on NCI-H23, in the test with SR and in the test on UO-31 was > 100 µM (inactive) in each case. Besides, the GI50 with RPMI-8226, in the test with SF-295, in the test on NCI-H522, in the test on LOX IMVI, with OVCAR-4 and in the test on TK-10 was > 100 µM (inactive) in each case. In addition, the GI50 in the test with Hs-578T and with 786-0 was > 100 µM (inactive) throughout.
With `COc1cc2c(cc1OCCCC(=O)Nc1cc(C(=O)Nc3cc(C(=O)Nc4cc(C(=O)NCCCN(C)C)n(C)n4)n(C)c3)n(C)c1)N=CC1CCCN1C2=O` (stereo not given), the GI50 with OVCAR-3 was 40.3 µM (inactive); with Malme-3M it was 18.7 µM (inactive); in the test with HCC 2998 it was 28.1 µM (inactive); in the test on MDA-N, 20 µM (inactive); with UACC-62 it was 19.1 µM (inactive); in the test with NCI-H226, 25.1 µM (inactive). The GI50 was 21 µM (inactive) in the test on MDA-MB-435; 33 µM (inactive) in the test on OVCAR-8; 23.9 µM (inactive) in the test with SNB-75; 25.8 µM (inactive) in the test on NCI-H23; 3.76 µM (inactive) with SR; 22.2 µM (inactive) in the test on UO-31. Further, the GI50 was 25.7 µM (inactive) in the test on RPMI-8226; 31.4 µM (inactive) with SF-295; 2.28 µM (inactive) with NCI-H522; 18.7 µM (inactive) in the test with LOX IMVI; 20.1 µM (inactive) with OVCAR-4; 21 µM (inactive) in the test on TK-10. Further, the GI50 in the test with Hs-578T was 22.1 µM (inactive); with 786-0, 22.3 µM (inactive).
With `COC(=O)C1(NC(=O)C(Cc2ccccc2)NC(=O)C(NC(=O)C(CCCCNC(=O)OC(C)(C)C)NC(=O)C(Cc2c[nH]c3ccccc23)NC(=O)C(Cc2ccccc2)NC(=O)OCc2ccccc2)C(C)OC(C)(C)C)CCCC1` (stereo not given) (Cbz-FWK(Boc)T(tBu)F[Ac5c]-OMe; configuration not given here), the GI50 in the test on OVCAR-3, in the test with Malme-3M, in the test on HCC 2998, in the test with MDA-N, with UACC-62 and in the test with NCI-H226 was > 100 µM (inactive) in each case. The GI50 in the test with MDA-MB-435, in the test with OVCAR-8, in the test with SNB-75, in the test with NCI-H23, in the test on SR and in the test on UO-31 was > 100 µM (inactive) throughout. Moreover, the GI50 is > 100 µM (inactive) with RPMI-8226; > 100 µM (inactive) with SF-295; 19 µM (inactive) in the test on NCI-H522; 80.9 µM (inactive) in the test on LOX IMVI; > 100 µM (inactive) in the test with OVCAR-4; > 100 µM (inactive) with TK-10. Also, the GI50 in the test with Hs-578T and in the test with 786-0 was > 100 µM (inactive) throughout.
As for `CC1CC(C)(O)CC(C(O)CC2CC(=O)NC(=O)C2)C1=O` (stereo not given) [RESACTIN A], the GI50 in the test on OVCAR-3 is 0.0566 µM (active); in the test with Malme-3M, 0.0546 µM (active); with HCC 2998, 0.0441 µM (active); in the test with MDA-N, 0.0372 µM (active); in the test with UACC-62, 0.0413 µM (active); with NCI-H226 it was 0.0689 µM (active). Also, the GI50 with MDA-MB-435 is 0.0432 µM (active); in the test on OVCAR-8 it was 0.0266 µM (active); in the test on SNB-75, 0.0225 µM (active); in the test with NCI-H23, 0.0413 µM (active); in the test with SR it was 0.0251 µM (active); in the test on UO-31, 0.055 µM (active). The GI50 is 0.0456 µM (active) with RPMI-8226; < 0.0149 µM (active) in the test with SF-295; < 0.0135 µM (active) in the test with NCI-H522; 0.0283 µM (active) in the test on LOX IMVI; 0.0447 µM (active) with OVCAR-4; 0.187 µM (active) with TK-10. Also, the results for the GI50 with Hs-578T and in the test with 786-0 were < 0.0126 µM (active) and 0.0252 µM (active), respectively.
